Columns and labels:
canaux calcium [1] = assay: Calcium flux inhibition (IC50Ca2+) on SK-N-SH nerve cells; type: cell-based; conditions: concentration inhibiting 50 % of Ca2+ release, read-out: IC50Ca2+ Sur cellules nerveuses SK-N-SH
Source text: Par ailleurs, le demandeur a trouvé que les amines de formule (I) et en particulier de formule (II) sont des inhibiteurs de canaux calcium (ou de flux calcique) comme […] ou […]. Or, les inhibiteurs de canaux sont connus comme actifs dans le traitement de la chute des cheveux et sur leur effet bénéfique sur la microcirculation (confère description ci-dessus). Pour qu'une substance soit reconnue comme un inhibiteur des canaux calcium, elle doit pouvoir diminuer la concentration intracellulaire en calcium ou diminuer la liaison du calcium aux protéines intracellulaires comme par exemple la calmoduline, tel que cela est notamment décrit par Galizzi, J. P. et al., J. Biol. Chem. 1987, 262 p 6947; par Y. Okamiya et al., Eur. J. Pharmacol. 1991, 205, […]. Wagner et al., J. Neurosci. 1988, 8, […]. Lee et al., Life Sci. 1984, 35, p 721; par Schoemaker H. et Lauger S. Eur. J. Pharmacol. 1985, 111, p 273 ou encore I. J. Reynolds et al., J. Pharmacol. Exp. Ther. 1986, 237, p 731. Selon le protocole indiqué dans ces documents, […]'inhibition de flux calcique des composés (3), (4), (6) et (7), en comparaison […] sont donnés dans le tableau ci-après.

canaux calcium [2] = assay: Calcium flux inhibition (IC50Ca2+) on HDFa skin fibroblast cells; type: cell-based; conditions: concentration inhibiting 50 % of Ca2+ release, read-out: IC50Ca2+ Sur cellules issues de fibroblastes de la peau HDFa
Source text: Par ailleurs, le demandeur a trouvé que les amines de formule (I) et en particulier de formule (II) sont des inhibiteurs de canaux calcium (ou de flux calcique) comme le vérapamil ou l'alvérine. Or, les inhibiteurs de canaux sont connus comme actifs dans le traitement de la chute des cheveux et sur leur effet bénéfique sur la microcirculation (confère description ci-dessus).
Pour qu'une substance soit reconnue comme un inhibiteur des canaux calcium, elle doit pouvoir diminuer la concentration intracellulaire en calcium ou diminuer la liaison du calcium aux protéines intracellulaires comme par exemple la calmoduline, tel que cela est notamment décrit par Galizzi, J. P. et al., J. Biol. Chem. 1987, 262 p 6947; par Y. Okamiya et al., Eur. J. Pharmacol. 1991, 205, p 49; par J. A. Wagner et al., J. Neurosci. 1988, 8, p 3354; par H. R. Lee et al., Life Sci. 1984, 35, p 721; par Schoemaker H. et Lauger S. Eur. J. Pharmacol. 1985, 111, p 273 ou encore I. J. Reynolds et al., J. Pharmacol. Exp. Ther. 1986, 237, p 731.
Selon le protocole indiqué dans ces documents, le demandeur a déterminé l'IC50Ca2+ d'inhibition de flux calcique des composés (3), (4), (6) et (7), en comparaison avec le vérapamil; les résultats sont donnés dans le tableau ci-après. IC50Ca2+ représente la concentration inhibitrice de 50 % de libération de Ca^2+.

[3] = test system: coculture nerfs/muscles (cellules musculaires striées humaines); assay: Inhibition of muscle fibre contractions in a nerve/muscle coculture model; type: cell-based, humaines; rat; conditions: 10, 50, 100 µM; 60 s incubation; three muscle fibres; triplicate
Method: La molécule de l'exemple 1 a été testée à différentes concentrations, à savoir 10, 50 et 100 µM, sur un modèle de coculture nerfs/muscles, qui permet de recréer un arc moteur en innervant des cellules musculaires striées humaines avec des explants de moelle épinière et de ganglions rachidiens d'embryons de rat.
Ce test est prédictif d'un effet inhibiteur des contractions des fibres musculaires.
Des cellules musculaires humaines, issues de prélèvements de muscles striés de donneurs sains, sont ensemencées dans des puits de 1,8 cm^2 de section (boîtes de culture de 24 puits). Après 10 jours de culture, ces cellules forment une monocouche et fusionnent. A ce stade, des explants de moelle épinière d'embryons de rat de 13 jours contenant les ganglions rachidiens sont déposés sur la culture.
La croissance des neurites est visible en dehors de l'explant de moelle épinière après un jour de culture. Les premières contractions des fibres musculaires sont observées après 5 à 6 jours de coculture et après 3 semaines, toutes les fibres musculaires au voisinage des explants se contractent.
Les cocultures sont utilisées après 21 jours, quand les fibres musculaires sont striées et possèdent des jonctions neuromusculaires différenciées matures. […]

Row | SMILES | IC50 (canaux calcium [1]) [µM] | IC50 (canaux calcium [2]) [µM] | contractions des fibres musculaires [3]
1 | CCCCCC(=O)CCN(CC)CCc1ccc(OC)c(OC)c1 [compound 6] | 32 | 22 | 
2 | CCCCCC(=O)CCN(CC)Cc1ccccc1 [compound 7] | 17 | 18 | 
3 | CCCCCC(=O)CCN(CCCc1ccccc1)CCC(=O)CCCCC [compound 3] | 7 | 18 | 
4 | COC(=O)C1=C(C)NC(C)=C(C(=O)OC)C1c1ccccc1[N+](=O)[O-] [nifédipine, reference compound] | 29 |  | 
5 | CCN(CCCc1ccccc1)CCCc1ccccc1 [alvérine, reference compound] | 30 |  | 
6 | COc1ccc([C@@H]2Sc3ccccc3N(CCN(C)C)C(=O)[C@@H]2OC(C)=O)cc1 [diltiazem, reference compound] | > 45 |  | 
7 | CCCCCC(=O)CCN(CC)CCCc1ccccc1 [compound 4, 1-(N-éthyl, (3-phényl-)propylamino) octan-3-one] | 18 | 30 | bloque les contractions

From patent EP1506767A1, “Use of a carbonylated amine for stimulating hairgrowth and/or for slowing down their loss” (L'OREAL, priority 2003, dated 2005)
